# From patent publication US9359317B2, “Small molecule inhibitors of HIV proteases” (Purdue Research Foundation, priority 2008, dated 2016)
# Target: HIV Protease (Human immunodeficiency virus type 1 group M subtype B, UniProt P04585)
# Experiment: Inhibition of HIV Protease
# Type: biochemical
# Details: Table 1, Inhibition of HIV Protease by compounds of formula drawing 46
row,SMILES,Ki
1,C=CCC1OC(c2ccccc2)CC1C(NS(=O)(=O)c1ccc(F)cc1)C(=O)O (stereo not shown) [compound 18],> 1000 nM
2,Cc1ccc(S(=O)(=O)NC(C(=O)O)C2CC(c3ccccc3)OC2CC(O)c2ccccc2)cc1 (stereo not shown) [compound 21],4 nM
3,Cc1ccc(S(=O)(=O)NC(C(=O)O)C2CC(c3ccccc3)OC2CC(O)CO)cc1 (stereo not shown) [compound 22],27 nM
4,C=CCC1OC(c2ccccc2)CC1C(NS(=O)(=O)c1ccc(C)cc1)C(=O)O (stereo not shown) [compound 25],> 1000 nM
5,Cc1ccc(S(=O)(=O)NC(C(=O)O)C2CC(c3ccc4ccccc4c3)OC2CC(O)c2ccccc2)cc1 (stereo not shown) [compound 26],150 nM
6,CC=CC1OC(c2ccccc2)CC1C(NS(=O)(=O)c1ccc(C)cc1)C(=O)O (stereo not shown) [compound 33],> 1000 nM

# Same assay, conditions: Table 2, Inhibition of HIV Protease
row,SMILES,Ki
1,COc1ccc(S(=O)(=O)NC(C(=O)O)C2CC3Cc4cc(OC)ccc4C2O3)cc1 (stereo not shown) [compound 2],> 1000 nM
